Data set [1] concerns MiaPaCa cells. In words: MTT cell survival assay on MiaPaCa cells. Particulars: for inhibition at 50 µM: Homo sapiens, MIA PaCa-2, 48 h. It counts as cell-based. The protocol:
Pancreactic cancer cell lines, MiaPaCa cells were cultured in DMEM medium (Gibco) supplemented with 10% fetal bovine serum (FBS). Cells were seeded at a densitiy of 15,000 cells per well in 96 well View Plate™ (Packard) in 250 μl of medium containing the same components as described above.
(§1) Cells were allowed to adhere and proliferate for 24 hr. At that time, culture medium was removed and serial dilutions from 10 nM to 200 μM of the test compounds were added in culture medium. Gemcitabine and no treatment were included as positive and negative controls. Plates were further incubated at 37° C. and 5% CO2 for 48 hours. The number of viable cells remaining after the appropriate treatment was determined by Colorimetric Assay (3-(4,5-dimethylthiazol-2-yl)-2,5-diphenyl tetrazolium bromide, MTT).
(§2) Inhibition of MiaPaCa and Capan-2 cells were tested at different doses of compounds of the invention: 50 μM, 100 μM and 200 μM.
(§3) Cells were seeded on 96-well plates in 250 μL media and 24 hours later, compound to be tested was added in 250 μL of media to the desired final concentration (from 10 nM to 200 μM). After 48 hours, the number of viable cells remaining after the appropriate treatment was determined by MTT. Minimum Efficient Dose (MED) and IC50 values was evaluated from the dose-dependency study. The results in FIGS. 1, 2, 4 and 5 are presented in percentage of cell growth inhibition compared to control non treated cells.
(In general: Formazan colour is commonly taken as a measure of viable cells.)

The test system of another data set is Capan-2 cells. Kind of data set: MTT cell survival assay on Capan-2 cells. It counts as cell-based. The conditions noted are these: for inhibition at 50 µM: Homo sapiens, Capan-2, 48 h, read-out: Inhibition effect on Capan-2 at 50 μM (%); for cell viability / cells die: FIG. 2. The protocol: For Capan-2 cell lines, the cells were cultured in RPMI 1640 medium supplemented with 10% FBS and 1% glutamine. Cells were seeded at a densitiy of 20,000 cells per well in 96 well View Plate™ (Packard) in 250 μl of medium containing the same components as described above.
as §1, §2, §3

A further data set has as its system MiaPaCa-2 cells. In words: Combination effect with gemcitabine in vitro, MTT assay on MiaPaCa-2 cells. It counts as cell-based. The conditions noted are these: combined with gemcitabine, MiaPaCa-2, FIG. 9. The source says:
FIG. 9 illustrates the beneficial combination effect of compounds (1, 4 or 18) in vitro based on the results obtained by using a MTT assay on MiaPaCa-2 cells.
Three compounds (compounds n^o 1, 4 and 18) combined with gemcitabine were accessed their anticancer activity.

In a further data set the test system is p-8 mRNA. In words: p-8 mRNA expression in MiaPaCa-2 cells by quantitative RT-PCR. It counts as cell-based. The conditions noted are these: FIG. 12. The source says: The stress-associated protein, p-8 with antiapoptotic properties was strongly expressed in two of the most resistant pancreactic cancer cell lines, while Heat Shock Protein 27 (Hsp27) is a protein which can be over-expressed in many tumor cells and protects against apoptotic cell death triggered by various stimuli. So in order to study the intracellular target of the active compounds, the effect of the active compounds on the expression of p-8 and Hsp27 mRNA in MiaPaCa-2 cells were investigated by quantitative RT-PCR. First-strand cDNA was synthesized in 20 μL reaction with 1 μg total RNA using Expand Reverse Transcriptase (Roche, Meylan, France) following the instructions of the manufacturer. Quantitative PCR was done with the Light Cycler system (Roche) and Takara (Berkeley, Calif.) reagents. Five microliters of 10-fold diluted cDNA were mixed with 10 μL SYBR Premix Ex Taq (including Taq polymerase, reaction buffer, MgCl2, SYBR green I dye, and deoxynucleotide triphosphate mix) and […] forward and reverse primers (TBP primers are used as a control) in a volume of 20 μL. […] Each sample was analyzed in duplicate and the experiment was repeated twice. Results were analyzed using RelQuant (Roche) and expressed as percent of control values.

In data set [2] the test system is MiaPaCa cells. Kind of data set: Apoptosis evaluation on MiaPaCa cells by flow cytometry (sub-G0 ratio). The conditions noted are these: 24 h after administration, FIG. 3. It is filed as cell-based. The procedure:
Cells were plated in 10 cm dishes at the density of 300 000 cells/plate. Cells were stopped for flow cytometry analysis 12, 24 and 48 h post-treatment. After trypsination, cell pellet was washed with PBS and fixed in cold-ethanol 70% overnight at 4° C. After a wash with phosphate-citrate buffer, cells were treated with 200 μL RNA-ase (500 μg/mL), labeled with 1 mL propidium iodide (50 μg/mL), and immediately analyzed by flow cytometry (FACS Calibur, Becton Dickinson, Le Pont-De-Claix, France). Cell death analysis was done on 1,000,000 cells, evaluating the sub-G0 ratio. Each sample was performed in triplicate.
(In general: A flow cytometer gives signals particle by particle.)

For data set [3], the system named is MiaPaCa-2-xenografed tumors. In words: MiaPaCa-2 xenograft tumor growth in nude mice. It counts as in vivo. The protocol:
The antitumor effects of the active compounds 1 and 4 were evaluated in nude mice bearing MiaPaCa-2-xenografed tumors. Institutional guidelines for the proper and human use of animals in research were followed. Approximately 1×10^7 MiaPaCa-2 cells were inoculated subcutaneously with 0.1 mL of Matrigel (BD Biosciences Discovery Labware) to 6-week-old male xenografed nude mice. When MiaPaCa-2 tumors reached 100 mm^3, mice were randomly selected for treatment with test compound and no treated mice were used as control. Each experimental group consisted of 8 mice. After randomization, 150 mg/kg test compound was injected every three days by i.p. injection for 5 weeks. The combination injection was performed every two days. Tumor volume measurements were performed once weekly and calculated by the formula length×width×depth×0.5236.

Another data set deals with pancreatic cancer. Particulars: pancreatic cancer patients, first-line treatment; cited from earlier work.
Where [4] appears, read: 50 μM, 48 hours, MTT, Table III, read-out: Inhibition effect on MiaPaCa-2 at 50 μM (%).
Where [5] appears, read: 50 μM, 48 hours, MTT, Table III.
[6] abbreviates: 50 μM, 48 hours, MTT, Table II, read-out: Inhibition effect on MiaPaCa at 50 μM (%).

Read-outs that look alike come from different tables or passages of the source.

Take `NC(=O)c1nc(-c2cn(Cc3ccc4ccc5cccc6ccc3c4c56)nn2)nn1COCCO` [Compound 20, 1-((2-hydroxyethoxy)methyl)-3-(1-((pyren-3-yl)methyl)-1H-1,2,3-triazol-4-yl)-1H-1,2,4-triazole-5-carboxamide]: the inhibition (as a rule, the relative decrease from the control value, in per cent) at 50 µM with MiaPaCa cells [1] (setting [4]) is 28.7%; in the data set with Capan-2 cells (setting [5]) it was 60.6%.
Consider `COC(=O)c1nc(C#CC2=CCCCC2)n([C@@H]2O[C@H](COC(C)=O)[C@@H](OC(C)=O)[C@H]2OC(C)=O)n1` [Compound 2, Methyl 5-(Cyclohexenylethynyl)-1-(2,3,5-tri-O-acetyl-β-D-ribofuranosyl)-1H-[1,2,4]triazole-3-carboxylate], for which the inhibition at 50 µM with MiaPaCa cells [1] (setting [6]) turned out to be 21.3%; in the data set with Capan-2 cells (50 μM, 48 hours, MTT, Table II), 57.6%. For the same molecule, the cell viability entry in the data set with Capan-2 cells (Capan-2, doses higher than 100 μM) is given as “cell viability rapidly decreases”.
As to `NC(=O)c1nc(C#Cc2ccc(C(F)(F)F)cc2)n(COCCOC(=O)c2ccccc2)n1` [Compound 15, 1-[(2-(benzoyloxy)ethoxy)methyl]-5-(2-(4-trifluoromethylphenyl)ethynyl)-1H-1,2,4-triazole-3-carboxamide], the inhibition at 50 µM in the data set on MiaPaCa cells [1] (setting [4]) and with Capan-2 cells (setting [5]) was over 50% throughout.
Take `COC(=O)c1nc(-c2cn(Cc3ccc4ccc5cccc6ccc3c4c56)nn2)n(COCCOC(C)=O)n1` [Compound 18, Methyl 1-((2-acetoxyethoxy)methyl)-5-(1-((pyren-3-yl)methyl)-1H-1,2,3-triazol-4-yl)-1H-1,2,4-triazole-3-carboxylate]: the inhibition at 50 µM in the data set on Capan-2 cells (setting [5]) was over 50%. The “antiproliferation in combination with gemcitabine” value in the data set on MiaPaCa-2 cells was “more efficiency on antiproliferation”. Besides, in the data set on p-8 mRNA (single treatment), the “p-8 mRNA expression” value was “significantly inhibit”.
For `NC(=O)c1nc(C#Cc2ccc(Br)cc2)n(COCCO)n1` [Compound 14, 1-((2-hydroxyethoxy)methyl)-5-(2-(4-bromophenyl)ethynyl)-1H-1,2,4-triazole-3-carboxamide], the inhibition at 50 µM in the data set on MiaPaCa cells [1] (setting [4]) and in the data set with Capan-2 cells (setting [5]) was over 50% in each case.
For `CCCCCCCCCCCCn1cc(-c2nc(C(N)=O)nn2COCCO)nn1` [Compound 17], the “Inhibition effect on MiaPaCa-2 at 50 μM (%)” value in the data set with MiaPaCa cells [1] (setting [5]) is 43.2%. Also, in the data set on Capan-2 cells (setting [5]), the “Inhibition effect on Capan-2 at 50 μM (%)” value came out at 29.5%.
On to `NC(=O)c1nc(-c2cn(-c3cccc4ccccc34)nn2)n(COCCO)n1` [Compound 21, 1-((2-hydroxyethoxy)methyl)-5-(1-(naphthalen-1-yl)-1H-1,2,3-triazol-4-yl)-1H-1,2,4-triazole-3-carboxamide], for which the inhibition at 50 µM came to 30.9% in the data set with MiaPaCa cells [1] (setting [4]) and 55.6% in the data set with Capan-2 cells (setting [5]).
For the molecule `COC(=O)c1nc(C#Cc2ccc(C(F)(F)F)cc2)n([C@@H]2O[C@H](COC(C)=O)[C@@H](OC(C)=O)[C@H]2OC(C)=O)n1` [Compound 1, Methyl 5-(4-trifluoromethylphenylethynyl)-1-(2,3,5-tri-O-acetyl-β-D-ribofuranosyl)-1H-[1,2,4]triazole-3-carboxylate], the inhibition at 50 µM was over 50% in the data set with MiaPaCa cells [1] (setting [6]) and over 50% with Capan-2 cells (50 μM, 48 hours, MTT, Table II). In addition, the cells die result is “about 60%” in the data set on MiaPaCa cells [1] (MiaPaCa, 50 μM, FIG. 1); “about 60%” with Capan-2 cells (Capan-2, 50 μM); “more than 80%” in the data set with Capan-2 cells (Capan-2, 100 μM). For the same molecule, the “apoptosis compared to cells treated with gemcitabine” value in the data set with MiaPaCa cells [2] is on record as “about 4 times”. Also, the “apoptosis compared to non-treated cells” value in the data set with MiaPaCa cells [2] is listed as “about 8 times”. Moreover, the “antiproliferation in combination with gemcitabine” value in the data set on MiaPaCa-2 cells is listed as “more efficiency on antiproliferation”. Moreover, the MiaPaCa-2 tumor volume result in data set [3] (150 mg/kg i.p. every three days for 5 weeks, compound alone, FIG. 10) is given as “reduce MiaPaCa-2 tumor volume”. Moreover, the “adverse effect of drug treatment” value in data set [3] (alone or in combination with gemcitabine, nude mice, FIG. 11) was “absence of adverse effect”. Also, in data set [3] (combined with gemcitabine, injection every two days, FIG. 10), the tumor growth entry is on record as “almost sinificantly inhibited”. The “p-8 mRNA expression” value in the data set on p-8 mRNA (combination with gemcitabine) was “down-regulated”.
For `Nc1ccn([C@@H]2O[C@H](CO)[C@@H](O)C2(F)F)c(=O)n1` [Gemcitabine, reference compound], the inhibition at 50 µM in the data set on MiaPaCa cells [1] (setting [6]) came out at 29.3%; in the data set with MiaPaCa cells [1] (setting [4]), 29.3%; with Capan-2 cells (50 μM, 48 hours, MTT, Table II), 61.7%; with Capan-2 cells (setting [5]), 61.7%. Besides, in the data set on MiaPaCa cells [1] (MiaPaCa, 50 μM or 100 μM, FIG. 1), the cells remaining alive result is recorded as “about 80%”. In addition, the cell viability entry with Capan-2 cells (Capan-2, with dose increase) is listed as “cell viability stagnates”. In the data set on pancreatic cancer, the response was 12%.
In the case of `COC(=O)c1nc(-c2cn(-c3ccc4ccc5cccc6ccc3c4c56)nn2)n(COCCOC(C)=O)n1` [Compound 22, Methyl 1-((2-acetoxyethoxy)methyl)-5-(1-(pyren-3-yl)-1H-1,2,3-triazol-4-yl)-1H-1,2,4-triazole-3-carboxylate], the inhibition at 50 µM was determined as 40.7% with MiaPaCa cells [1] (setting [4]) and 63.9% with Capan-2 cells (setting [5]).
Consider `NC(=O)c1nc(-c2cn(Cc3ccc4ccc5cccc6ccc3c4c56)nn2)n(COCCO)n1` [Compound 19, 1-((2-hydroxyethoxy)methyl)-5-(1-((pyren-3-yl)methyl)-1H-1,2,3-triazol-4-yl)-1H-1,2,4-triazole-3-carboxamide], for which the inhibition at 50 µM in the data set with MiaPaCa cells [1] (setting [4]) worked out at 59.3%; with Capan-2 cells (setting [5]), 43.4%.
